Data on 28 compounds can be found in patent publication US20260355196A1, “INHIBITORS AND DEGRADERS OF PIP4K PROTEIN” (Larkspur Biosciences, Inc., priority 2023, published 2026).

The experiment deals with T1, PIP4K2C (Homo sapiens, UniProt Q8TBX8).
T1 sequence (Q8TBX8 1-421): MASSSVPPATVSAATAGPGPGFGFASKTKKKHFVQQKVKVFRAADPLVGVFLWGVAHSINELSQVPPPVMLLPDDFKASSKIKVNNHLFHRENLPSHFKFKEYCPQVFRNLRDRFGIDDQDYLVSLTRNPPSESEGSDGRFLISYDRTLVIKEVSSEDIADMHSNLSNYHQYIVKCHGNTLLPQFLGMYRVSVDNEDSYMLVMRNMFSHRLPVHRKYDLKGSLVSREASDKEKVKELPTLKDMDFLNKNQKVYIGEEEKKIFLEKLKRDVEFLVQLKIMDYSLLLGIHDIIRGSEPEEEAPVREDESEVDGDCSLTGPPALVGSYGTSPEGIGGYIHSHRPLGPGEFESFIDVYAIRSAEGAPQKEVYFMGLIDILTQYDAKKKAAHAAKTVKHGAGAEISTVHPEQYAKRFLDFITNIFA
The experiment is described as follows: Enzyme Binding Assay (KINOMEscan): active site-directed competition binding to an immobilized ligand. Also on record: purchased Eurofins DiscoverX, San Diego, CA 87-0007-1094. The conditions noted are these: 11-point dose response, duplicate, top concentration 5 micromolar; read-out: Pip4k2c Kd: IC50. The procedure:
Example B-1: Enzyme Binding Assays (KINOMEscan)
PIP4K2C binding constants disclosed herein were determined using the proprietary Human PIP4K2C binding assay (Catalog number 87-0007-1094, Eurofins DiscoverX, San Diego, CA). This assay measures active site-directed competition binding to an immobilized ligand (see https://doi.org/10.1038/nbt1068, herein incorporated by reference in its entirety). Experiments were conducted using an 11-point dose response curve, in duplicate, with a top starting concentration of 5 micromolar; the Levenberg-Marquardt algorithm was used to fit a Hill equation to dose-response data to calculate IC50 values (see Table 5).
As for `CC(=O)N[C@H]1CC[C@H](Nc2ncc(F)c(-n3cc(-n4ccccc4=O)cn3)n2)CC1` [Compound 260, trans-N-((1r,4r)-4-((5-fluoro-4-(4-(2-oxopyridin-1 (2H)-yl)-1H-pyrazol-1-yl)pyrimidin-2-yl)amino)cyclohexyl)acetamide], the IC50 (in general, the concentration needed to halve the response being measured) is 1000 to 5000 nM.
To `CC(=O)N[C@H]1CC[C@@H](Nc2ncc(Cl)c(-c3cccc(-n4ccccc4=O)c3)n2)CC1` [Compound 93, cis-N-((1s,4s)-4-((5-chloro-4-(3-(2-oxopyridin-1 (2H)-yl)phenyl)pyrimidin-2-yl)amino)cyclohexyl)acetamide] belongs below 500 nM.
To `NC(=O)[C@H]1CCC[C@@H](Nc2ncc(F)c(-c3cnn(-c4ccc(F)cc4)c3)n2)C1` (relative stereo) [Compound 43, cis-3-((5-fluoro-4-(1-(4-fluorophenyl)-1H-pyrazol-4-yl)pyrimidin-2-yl)amino)cyclohexane-1-carboxamide] belongs 500 to 1000 nM; to `CC(=O)N[C@H]1CC[C@H](Nc2ncc(F)c(-c3cccc(C(=O)N4CC[C@H](O)C4)c3)n2)CC1` [Compound 252, trans-N-[4-[[5-fluoro-4-[3-[(3S)-3-hydroxypyrrolidine-1-carbonyl]phenyl]pyrimidin-2-yl]amino]cyclohexyl]acetamide], below 500 nM.
Then `CC(=O)N[C@H]1CC[C@H](Nc2ncc(F)c(-c3cccc(N4CCCOC4=O)n3)n2)CC1` [Compound 624, N-(trans-4-((5-fluoro-4-(6-(2-oxo-1,3-oxazinan-3-yl)pyridin-2-yl)pyrimidin-2-yl)amino)cyclohexyl)acetamide], with below 500 nM.
With `NC(=O)[C@H]1CC[C@H](Nc2ncc(F)c(-c3cccc(N4CCCOC4=O)n3)n2)CC1` [Compound 621, trans-4-((5-fluoro-4-(6-(2-oxo-1,3-oxazinan-3-yl)pyridin-2-yl)pyrimidin-2-yl)amino)cyclohexane-1-carboxamide], the IC50 was below 500 nM.
Then `CC(=O)N[C@H]1CC[C@H](Nc2ncc(F)c(N3CCOCC3)n2)CC1` [Compound 182, trans-N-(4-((5-fluoro-4-morpholinopyrimidin-2-yl)amino)cyclohexyl)acetamide], with 1000 to 5000 nM; and `CC(=O)N1CCC(Nc2ncc(Cl)c(-c3cccc(-c4ccc(F)cc4)n3)n2)CC1` [Compound 114, 1-(4-((5-chloro-4-(6-(4-fluorophenyl)pyridin-2-yl)pyrimidin-2-yl)amino)piperidin-1-yl)ethan-1-one], with below 500 nM; and `CC(=O)N[C@H]1CCC[C@@H](Nc2ncc(Cl)c(-c3cccc(-c4ccccc4)c3)n2)C1` (relative stereo) [Compound 33, cis-N-(3-((4-([1,1′-biphenyl]-3-yl)-5-chloropyrimidin-2-yl)amino)cyclohexyl)acetamide], with below 500 nM.
Consider `CC(=O)N1CCC(C(=O)N2CCC(Nc3ncc(Cl)c(-c4cccc(-c5ccccc5)c4)n3)CC2)CC1` [Compound 4, 1-(4-(4-((4-([1,1′-biphenyl]-3-yl)-5-chloropyrimidin-2-yl)amino)piperidine-1-carbonyl)piperidin-1-yl)ethan-1-one], for which the IC50 was below 500 nM.
Then `CNC(=O)[C@H]1CC[C@H](Nc2ncc(Cl)c(-c3cnn(-c4cc[nH]c(=O)c4)c3)n2)CC1` [Compound 165, trans-(1r,4r)-4-((5-chloro-4-(1-(2-oxo-1,2-dihydropyridin-4-yl)-1H-pyrazol-4-yl)pyrimidin-2-yl)amino)-N-methylcyclohexane-1-carboxamide], with 500 to 1000 nM; and `CNC(=O)[C@H]1C[C@H](Nc2ncc(Cl)c(-c3cnn(-c4cc[nH]c(=O)c4)c3)n2)C1` [Compound 133, trans-(1r,3r)-3-((5-chloro-4-(1-(2-oxo-1,2-dihydropyridin-4-yl)-1H-pyrazol-4-yl)pyrimidin-2-yl)amino)-N-methylcyclobutane-1-carboxamide], with 500 to 1000 nM.
As for `NC(=O)[C@@H]1CCC[C@H](Nc2ncc(Cl)c(-c3cccc(-n4ccc(F)cc4=O)c3)n2)C1` (racemic) [Compound 168, rac-(1R,3S)-3-((5-chloro-4-(3-(4-fluoro-2-oxopyridin-1 (2H)-yl)phenyl)pyrimidin-2-yl)amino)cyclohexane-1-carboxamide], the IC50 is below 500 nM.
To `NC(=O)[C@@H]1CCC[C@H](Nc2ncc(F)c(-c3cccc(-c4cccc(=O)[nH]4)c3)n2)C1` (relative stereo) [Compound 112, cis-3-((5-fluoro-4-(3-(6-oxo-1,6-dihydropyridin-2-yl)phenyl)pyrimidin-2-yl)amino)cyclohexane-1-carboxamide] belongs below 500 nM; to `CC(=O)N[C@H]1CC[C@H](Nc2ncc(F)c(-c3cccc(-c4cc[nH]c(=O)c4)c3)n2)CC1` [Compound 188, trans-N-(4-((5-fluoro-4-(3-(2-oxo-1,2-dihydropyridin-4-yl)phenyl)pyrimidin-2-yl)amino)cyclohexyl)acetamide], below 500 nM.
Then `CC(=O)N1CCC(Nc2ncc(F)c(N3CCC[C@H](C(=O)N4CC[C@H](O)C4)C3)n2)CC1` [Compound 215, 1-(4-((5-fluoro-4-((S)-3-((S)-3-hydroxypyrrolidine-1-carbonyl)piperidin-1-yl)pyrimidin-2-yl)amino)piperidin-1-yl)ethan-1-one], with 1000 to 5000 nM; and `NC(=O)[C@H]1CC[C@H](Nc2ncc(F)c(-c3cccc(N4CCOCC4=O)c3)n2)CC1` [Compound 268, trans-4-((5-fluoro-4-(3-(3-oxomorpholino)phenyl)pyrimidin-2-yl)amino)cyclohexane-1-carboxamide], with below 500 nM; and `CC(=O)N[C@H]1CC[C@H](Nc2ncc(F)c(N3CCC[C@H](C(=O)NC4CC4)C3)n2)CC1` [Compound 198, trans-(S)-1-(2-((4-acetamidocyclohexyl)amino)-5-fluoropyrimidin-4-yl)-N-cyclopropylpiperidine-3-carboxamide], with 1000 to 5000 nM.
Then `CNC(=O)[C@H]1C[C@@H](Nc2ncc(Cl)c(-c3cnn(-c4ccc(=O)[nH]c4)c3)n2)C1` [Compound 164, cis-3-((5-chloro-4-(1-(6-oxo-1,6-dihydropyridin-3-yl)-1H-pyrazol-4-yl)pyrimidin-2-yl)amino)-N-methylcyclobutane-1-carboxamide], with below 500 nM; and `CC(=O)N1CCC(Nc2ncc(Cl)c(-c3cnn(-c4ccc(=O)[nH]c4)c3)n2)CC1` [Compound 110, 5-(4-(2-((1-acetylpiperidin-4-yl)amino)-5-chloropyrimidin-4-yl)-1H-pyrazol-1-yl)pyridin-2(1H)-one], with below 500 nM; and `NC(=O)[C@@H]1CCC[C@H](Nc2ncc(F)c(-c3ccnc(N4CCOCC4=O)c3)n2)C1` (relative stereo) [Compound 629, cis-3-((5-fluoro-4-(2-(3-oxomorpholino)pyridin-4-yl)pyrimidin-2-yl)amino)cyclohexane-1-carboxamide], with below 500 nM.
As to `CNC(=O)[C@H]1CC[C@H](Nc2ncc(Cl)c(-c3ccc(=O)n(-c4ccc(F)cc4)c3)n2)CC1` [Compound 95, trans-(1r,4r)-4-((5-chloro-4-(1-(4-fluorophenyl)-6-oxo-1,6-dihydropyridin-3-yl)pyrimidin-2-yl)amino)-N-methylcyclohexane-1-carboxamide], the IC50 was 1000 to 5000 nM.
To `NC(=O)[C@@H]1CCC[C@H](Nc2ncc(F)c(-c3ccc(=O)n(-c4ccc(F)cc4)c3)n2)C1` (relative stereo) [Compound 41, cis-3-((5-fluoro-4-(1-(4-fluorophenyl)-6-oxo-1,6-dihydropyridin-3-yl)pyrimidin-2-yl)amino)cyclohexane-1-carboxamide] belongs below 500 nM; to `CC(=O)N1CCC(Nc2ncc(F)c(-c3cccc(N4CCOC4=O)c3)n2)CC1` [Compound 226, 3-(3-(2-((1-acetylpiperidin-4-yl)amino)-5-fluoropyrimidin-4-yl)phenyl)oxazolidin-2-one], below 500 nM; to `CC(=O)N1CCC(Nc2ncc(F)c(N3CCCC(c4ccc[nH]c4=O)C3)n2)CC1` (stereo not shown) [Compound 196, 3-[1-[2-[(1-acetyl-4-piperidyl)amino]-5-fluoro-pyrimidin-4-yl]-3-piperidyl]-1H-pyridin-2-one], below 500 nM.
Take `NC(=O)[C@H]1CCC[C@@H](Nc2ncc(Cl)c(C3CCN(C(=O)c4ccc(F)cc4)C3)n2)C1` (relative stereo) [Compound 135, cis-3-((5-chloro-4-(1-(4-fluorobenzoyl)pyrrolidin-3-yl)pyrimidin-2-yl)amino)cyclohexane-1-carboxamide]: the IC50 is below 500 nM.
Then `CNC(=O)[C@H]1CC[C@@H](Nc2ncc(Cl)c(-c3cc(C4CC4)[nH]n3)n2)CC1` [Compound 191, cis-(1s,4s)-4-((5-chloro-4-(5-cyclopropyl-1H-pyrazol-3-yl)pyrimidin-2-yl)amino)-N-methylcyclohexane-1-carboxamide], with below 500 nM; and `CC(=O)N1CCC[C@H](Nc2ncc(Cl)c(-c3ccnc(-c4ccc(F)cc4)c3)n2)C1` [Compound 141, (S)-1-(3-((5-chloro-4-(2-(4-fluorophenyl)pyridin-4-yl)pyrimidin-2-yl)amino)piperidin-1-yl)ethan-1-one], with below 500 nM.
